Measured values: article PMC10350928 (Journal of Medicinal Chemistry, 2023)

Assays:
Rat hepatocytes = test: Rat hepatocyte Clint; conditions: for RH: rat hepatocytes
Log D shake-flask method = conditions: octanol/water, pH 7.4, logD, Table 1, octanol and water at pH7.4
WT c-MET [1] = biological target: T1, WT c-MET (Homo sapiens, UniProt P08581); type: binding; conditions: Table 1; LLE = pKd – log D
WT c-MET [2] = biological target: T1, WT c-MET; type: biochemical; conditions: Table 3; LLE = pIC50 – log D
P-gp (MDR1) = test: MDR1-MDCK permeability and efflux; conditions: dog
[3] = Rat plasma pharmacokinetics; conditions: male, Han Wistar, iv, 0.5 mg/kg
Human hepatocytes = test: Human hepatocyte Clint; conditions: Table 4

T1 sequence (P08581 25-1390): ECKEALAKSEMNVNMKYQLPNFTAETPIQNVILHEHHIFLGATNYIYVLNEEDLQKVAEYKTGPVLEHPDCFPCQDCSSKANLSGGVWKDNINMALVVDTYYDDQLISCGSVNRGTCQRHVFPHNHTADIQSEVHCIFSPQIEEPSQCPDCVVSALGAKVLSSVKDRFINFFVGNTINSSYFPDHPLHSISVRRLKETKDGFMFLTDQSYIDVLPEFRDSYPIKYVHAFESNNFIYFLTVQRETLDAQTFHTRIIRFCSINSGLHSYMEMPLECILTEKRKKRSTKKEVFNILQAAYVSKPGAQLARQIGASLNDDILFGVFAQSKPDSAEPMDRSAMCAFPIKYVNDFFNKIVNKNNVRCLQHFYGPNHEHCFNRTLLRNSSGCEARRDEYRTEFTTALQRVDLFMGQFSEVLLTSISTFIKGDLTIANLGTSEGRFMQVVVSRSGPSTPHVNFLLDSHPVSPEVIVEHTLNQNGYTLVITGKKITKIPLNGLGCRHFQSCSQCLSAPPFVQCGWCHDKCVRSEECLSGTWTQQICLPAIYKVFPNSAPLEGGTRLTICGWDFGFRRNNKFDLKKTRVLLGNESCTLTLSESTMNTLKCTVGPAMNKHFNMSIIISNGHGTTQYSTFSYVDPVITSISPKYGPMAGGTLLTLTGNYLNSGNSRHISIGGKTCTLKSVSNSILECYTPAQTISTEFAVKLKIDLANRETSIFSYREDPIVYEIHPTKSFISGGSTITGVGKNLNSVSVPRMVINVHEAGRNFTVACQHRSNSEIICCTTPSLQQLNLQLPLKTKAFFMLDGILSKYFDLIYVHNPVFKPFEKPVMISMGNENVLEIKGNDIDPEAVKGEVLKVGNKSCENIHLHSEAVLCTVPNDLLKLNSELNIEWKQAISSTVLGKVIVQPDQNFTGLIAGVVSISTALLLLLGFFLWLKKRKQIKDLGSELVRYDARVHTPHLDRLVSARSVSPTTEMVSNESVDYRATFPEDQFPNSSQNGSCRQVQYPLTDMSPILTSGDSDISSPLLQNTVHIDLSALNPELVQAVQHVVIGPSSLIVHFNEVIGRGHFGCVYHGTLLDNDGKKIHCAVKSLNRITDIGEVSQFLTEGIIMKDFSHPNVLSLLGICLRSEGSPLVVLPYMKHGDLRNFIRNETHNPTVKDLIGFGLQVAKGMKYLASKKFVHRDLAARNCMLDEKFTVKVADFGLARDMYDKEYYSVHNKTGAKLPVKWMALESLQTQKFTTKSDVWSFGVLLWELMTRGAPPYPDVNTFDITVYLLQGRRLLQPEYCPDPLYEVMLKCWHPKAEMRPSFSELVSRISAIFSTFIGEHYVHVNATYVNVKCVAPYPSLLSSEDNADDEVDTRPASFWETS

Compound	RH (Rat hepatocytes; Table 1)	logD (Log D shake-flask method)	SPR assay LLE WT (WT c-MET [1])	ADP-Glo assay LLE WT (WT c-MET [2])	efflux ratio at 2 h, 10 μM (P-gp (MDR1))	clearance [3]	RH (Rat hepatocytes; Table 3)	Hepatocytes Rat (Rat hepatocytes; Table 4)	Hepatocytes Human (Human hepatocytes)
CC(c1ccc(F)cc1)n1cc(-c2cc(F)cc(F)c2)c(=O)[nH]c1=O (stereo not drawn) [Compound 6, 5-(3,5-Difluorophenyl)-1-(1-(4-fluorophenyl)ethyl)pyrimidine-2,4(1H,3H)-dione]	26.8 μL/min/10^6 cells	3.3	2.6	–	–	–	–	–	–
C[C@@H](c1ccc(F)cc1)n1cc(-c2cc(F)cc3cn[nH]c23)c(=O)[nH]c1=O [Compound 27, (S)-5-(5-Fluoro-1H-indazol-7-yl)-1-(1-(4-fluorophenyl)ethyl)pyrimidine-2,4(1H,3H)-dione]	–	–	–	4.1	< 7	74 mL/min/kg	14.8 μL/min/10^6 cells	14.8 μL/min/10^6 cells	1.81 μL/min/10^6 cells
